ChEMBL document CHEMBL1130303, “Evaluation of piperidinoethoxy moiety as an antiestrogenic substituent in non-steroidal anti-estrogens: Fertility regulation” (1997)
Active and inactive are the calls of the source. The calls are words filed in the database; no cut-off is given here.

Columns and labels:
[1] = tested on: Rattus norvegicus; assay: Antifertility activity at maximal effective dose in adult female rat in an antiestrogen assay at 10 mg/kg; assay type: functional
[2] = target: Estrogen receptor (Rattus norvegicus) (UniProt P06211+Q62986); assay: Relative Binding Affinity (RBA) for estrogen receptor in ovariectomized rats; assay type: protein assay
[3] = species on record: Rattus norvegicus; assay: Antifertility activity at maximal effective dose in adult female rat in an antiestrogen assay; assay type: functional
[4] = tested on: Rattus norvegicus; assay: Antifertility activity at maximal effective dose in adult female rat in an antiestrogen assay; Inactive at 10 mg/kg dose; assay type: functional, organism-based; set-up: dose 10 mg/kg
[5] = species on record: Rattus norvegicus; assay: Antifertility activity at maximal effective dose in adult female rat in an antiestrogen assay; Inactive; assay type: functional, organism-based
[6] = tested on: Rattus norvegicus; assay: Antifertility activity at maximal effective dose in adult female rat in an antiestrogen assay; Inactive at 5 mg/kg dose; assay type: functional, organism-based; set-up: dose 5 mg/kg

SMILES | relative binding affinity (RBA) [2] | MED100 [3] [mg/kg] | also measured
COc1ccc2c(c1)OC(C)(C)[C@H](c1ccccc1)[C@@H]2c1ccc(OCCN2CCCCC2)cc1 | – | – | Activity [1]: 90%
COc1ccc2c(c1)OC(C)(C)C(c1ccccc1)=C2c1ccc(OCCN2CCCCC2)cc1 | 0.53 | 10 | –
CC1(C)Oc2cc(O)ccc2C(c2ccc(OCCN3CCCC3)cc2)=C1c1ccccc1 | 9.2 | 15 | –
COc1ccc2c(c1)OCC(c1ccccc1)C2c1ccc(OCCN2CCCC2)cc1 (stereo not given) | 7.35 | 0.1 | –
CC1(C)Oc2cc(O)ccc2[C@@H](c2ccc(OCCN3CCCCC3)cc2)[C@@H]1c1ccccc1 | 50.1 | 0.2 | –
COc1ccc2c(c1)OCC(c1ccccc1)C2c1ccc(OCCN2CCCCC2)cc1 (stereo not given) | 1.45 | 0.25 | –
COc1ccc2c(c1)OC(C)(C)[C@@H](c1ccccc1)[C@@H]2c1ccc(OCCN2CCCCC2)cc1 | 3.77 | 0.1 | –
COc1ccc2c(c1)OC(C)(C)[C@H](c1ccccc1)[C@@H]2c1ccc(OCCN2CCCC2)cc1 | 0.16 | – | MED100 [4]: inactive
CC1(C)Oc2cc(O)ccc2[C@@H](c2ccc(OCCN3CCCC3)cc2)[C@H]1c1ccccc1 | – | – | MED100 [5]: inactive
CC1(C)Oc2cc(O)ccc2[C@@H](c2ccc(OCCN3CCCCC3)cc2)[C@H]1c1ccccc1 | – | – | MED100 [5]: inactive
CC1(C)Oc2cc(O)ccc2C(c2ccc(OCCN3CCCCC3)cc2)=C1c1ccccc1 | 2.11 | – | MED100 [6]: inactive
COc1ccc2c(c1)OC(C)(C)[C@@H](c1ccccc1)[C@@H]2c1ccc(OCCN2CCCC2)cc1 [LEVORMELOXIFENE] | 5.24 | 0.25 | –
COc1ccc2c(c1)OC(C)(C)C(c1ccccc1)=C2c1ccc(OCCN2CCCC2)cc1 | 0.86 | 5 | –
CC1(C)Oc2cc(O)ccc2[C@@H](c2ccc(OCCN3CCCC3)cc2)[C@@H]1c1ccccc1 | 112 | 0.25 | –
